This passage reports residual activity results from ChEMBL document CHEMBL3039007, “Structure-based identification of OATP1B1/3 inhibitors” (Mol Pharmacol, 2013).

Series [1] has as its target T1, Solute carrier organic anion transporter family member 1B1 (Homo sapiens, UniProt Q9Y6L6).
T1 sequence (Q9Y6L6 whole entry): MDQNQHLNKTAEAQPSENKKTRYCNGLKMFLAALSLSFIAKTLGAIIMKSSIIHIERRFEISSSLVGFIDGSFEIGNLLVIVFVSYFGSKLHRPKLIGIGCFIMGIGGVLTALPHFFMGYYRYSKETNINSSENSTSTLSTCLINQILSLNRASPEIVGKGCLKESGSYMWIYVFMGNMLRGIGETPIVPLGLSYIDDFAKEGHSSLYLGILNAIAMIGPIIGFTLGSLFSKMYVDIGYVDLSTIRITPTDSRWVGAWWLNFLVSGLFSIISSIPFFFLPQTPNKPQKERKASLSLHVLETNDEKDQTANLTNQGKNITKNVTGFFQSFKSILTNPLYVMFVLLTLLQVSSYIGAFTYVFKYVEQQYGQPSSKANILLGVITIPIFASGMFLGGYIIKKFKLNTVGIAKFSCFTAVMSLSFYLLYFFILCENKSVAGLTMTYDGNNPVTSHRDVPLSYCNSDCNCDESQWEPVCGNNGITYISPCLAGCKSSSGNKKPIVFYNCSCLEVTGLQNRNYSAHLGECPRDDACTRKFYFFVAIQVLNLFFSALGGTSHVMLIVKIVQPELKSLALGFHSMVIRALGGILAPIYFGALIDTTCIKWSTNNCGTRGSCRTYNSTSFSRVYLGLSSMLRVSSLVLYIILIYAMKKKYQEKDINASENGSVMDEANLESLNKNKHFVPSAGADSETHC
The note with it: chinese hamster, cho, 10 µM.

Series [2] has as its target T2, Solute carrier organic anion transporter family member 1B3 (Homo sapiens, UniProt Q9NPD5).
T2 sequence (Q9NPD5 whole entry): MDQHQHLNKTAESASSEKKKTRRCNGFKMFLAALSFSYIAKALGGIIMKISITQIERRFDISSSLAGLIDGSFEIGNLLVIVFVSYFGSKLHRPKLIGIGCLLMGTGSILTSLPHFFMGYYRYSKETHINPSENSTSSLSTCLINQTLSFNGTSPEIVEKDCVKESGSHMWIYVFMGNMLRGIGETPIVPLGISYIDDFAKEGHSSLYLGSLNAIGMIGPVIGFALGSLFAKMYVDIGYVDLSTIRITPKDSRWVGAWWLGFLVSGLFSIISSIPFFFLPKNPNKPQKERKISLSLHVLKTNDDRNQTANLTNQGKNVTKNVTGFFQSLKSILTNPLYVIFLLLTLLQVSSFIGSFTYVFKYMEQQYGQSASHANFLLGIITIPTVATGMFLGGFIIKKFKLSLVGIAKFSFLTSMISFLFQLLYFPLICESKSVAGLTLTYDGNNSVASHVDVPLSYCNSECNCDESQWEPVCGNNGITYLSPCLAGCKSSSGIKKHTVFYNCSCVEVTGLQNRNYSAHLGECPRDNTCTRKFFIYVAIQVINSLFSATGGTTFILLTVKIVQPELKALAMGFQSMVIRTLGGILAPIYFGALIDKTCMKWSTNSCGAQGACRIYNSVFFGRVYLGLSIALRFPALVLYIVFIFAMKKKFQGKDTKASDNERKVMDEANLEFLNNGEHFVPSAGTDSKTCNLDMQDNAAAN
The note with it: chinese hamster, cho, 10 µM.

Broadly, the residual activity is the signal under treatment as a percentage of the control signal.

As to `O=c1ccc2cc(O)c(O)cc2o1` [ESCULETIN], the residual activity in series [1] worked out at 111.1%; in series [2] it was 105.3%.
On the same counts, the results for `C[C@]12CC[C@@H]3c4ccc(O)cc4CC[C@H]3[C@@H]1CC[C@@H]2OC(=O)CCC1CCCC1` [ESTRADIOL CYPIONATE] are 81.59% and 90.49%.
In the case of `COc1ccc2c(c1)CC[C@@H]1[C@@H]2CC[C@]2(C)[C@@H](O)CC[C@@H]12` [ESTRADIOL METHYL ETHER], the residual activity turned out to be 137.4% in series [1] and 110% in series [2].
As for `CCCCC(=O)O[C@H]1CC[C@H]2[C@@H]3CCc4cc(O)ccc4[C@H]3CC[C@]12C` [ESTRADIOL VALERATE], the figures for the residual activity in series [1] and in series [2] were 291.5% and 129.8%, respectively.
The corresponding values for `C[C@]12CC[C@@H]3c4ccc(O)cc4CC[C@H]3[C@@H]1CC[C@@H]2O` [ESTRADIOL] are 125.9% and 131.9%.
For the compound `C[C@]12CC[C@@H]3c4ccc(O)cc4CC[C@H]3[C@@H]1C[C@@H](O)[C@@H]2O` [ESTRIOL], the residual activity is recorded as 110.2% in series [1] and 102.7% in series [2].
The corresponding values for `CC(=O)Oc1ccc2c(c1)CCC1C2CC[C@]2(C)C(=O)CCC12` (stereo partly drawn) [ESTRONE ACETATE] are 204.8% and 109.5%.
The corresponding values for `C[C@]12CCC3c4ccc(OC(=O)c5ccccc5)cc4CCC3C1CCC2=O` (stereo partly drawn) [ESTRONE BENZOATE] are 121% and 95.01%.
On the same counts, the results for `O=C(Cn1ccnc1[N+](=O)[O-])NCCO` [ETANIDAZOLE] are 72.81% and 76.09%.
`C=C(CC)C(=O)c1ccc(OCC(=O)O)c(Cl)c1Cl` [ETHACRYNIC ACID]: the figures for the residual activity in series [1] and in series [2] were 171.8% and 111.8%, respectively.
Regarding `C#C[C@]1(O)CC[C@H]2[C@@H]3CCc4cc(O)ccc4[C@H]3CC[C@@]21C` [ETHINYL ESTRADIOL], the residual activity came to 13.12% in series [1] and 61.16% in series [2].
For `CCN(CC)C(C)CN1c2ccccc2Sc2ccccc21.Cl` (stereo not drawn) [ETHOPROPAZINE HYDROCHLORIDE], the residual activity in series [1] came out at 60.6%; in series [2] it was 85.68%.
On the same counts, the results for `CCC1(C)CC(=O)NC1=O` (stereo not drawn) [ETHOSUXIMIDE] are 137.5% and 102.9%.
The corresponding values for `CCOC(=O)c1c(C)cc(OC)cc1O` [ETHYL EVERNINATE] are 111.1% and 102.6%.
The corresponding values for `CCOC(=O)c1c(C)cc(O)c(C=O)c1O` [ETHYL HEMATOMMATE] are 61.89% and 77.96%.
Regarding `CCC(N)C(O)c1ccc(O)c(O)c1.Cl` (stereo not drawn) [ETHYLNOREPINEPHRINE HYDROCHLORIDE], the values for the residual activity in series [1] and in series [2] were 130.8% and 104.2%, respectively.
Take `CCc1cccc2c3c([nH]c12)C(CC)(CC(=O)O)OCC3` (stereo not drawn) [ETODOLAC]: the residual activity in series [1] turned out to be 68.27%; in series [2] it was 103.6%.
On the same counts, the results for `Cn1c(=O)c2c(ncn2CCO)n(C)c1=O` [ETOFYLLINE] are 64.41% and 86.25%.
With `CC1CC(OC(=O)C(O)c2ccccc2)CC(C)(C)N1C.Cl` (stereo not drawn) [EUCATROPINE HYDROCHLORIDE], the residual activity came out at 84.86% in series [1] and 107.8% in series [2].
On the same counts, the results for `C[n+]1c2cc(N)ccc2cc2ccc(N)cc21.[Cl-]` [EUFLAVINE] are 105.1% and 93.94%.
The corresponding values for `Cc1cc(=O)c2c(O)c(C)c(O)cc2o1` [EUGENITOL] are 77.61% and 88.28%.
As for `C=CCc1ccc(O)c(OC)c1` [EUGENOL], the residual activity in series [1] was found to be 106%; in series [2] it was 104.3%.
On the same counts, the results for `C=C(C)c1cc2cc(C(C)=O)c(O)cc2o1` [EUPARIN] are 94.93% and 98.85%.
As to `COc1ccc(-c2cc(=O)c3c(O)c(OC)c(OC)cc3o2)cc1O` [EUPATORIN], the residual activity in series [1] is listed as 87.53%; in series [2], 72.8%.
On the same counts, the results for `COc1cc(C)c(C(=O)O)c(O)c1` [EVERNINIC ACID] are 82.73% and 90.88%.
The corresponding values for `COc1c2ccoc2nc2c(OC)c(OCC(O)C(C)(C)O)ccc12` (stereo not drawn) [EVOXINE] are 94% and 94.63%.
On the same counts, the results for `CCCCCCOc1ccccc1C(N)=O` [EXALAMIDE] are 188.8% and 129.1%.
Take `O=C1[C@H](CC[C@H](O)c2ccc(F)cc2)[C@@H](c2ccc(O)cc2)N1c1ccc(F)cc1` [EZETIMIBE]: the results for the residual activity in series [1] and in series [2] were 51.36% and 30.63%, respectively.
`CC(=O)OCC(CCn1cnc2cnc(N)nc21)COC(C)=O` [FAMCICLOVIR]: the residual activity in series [1] worked out at 68.22%; in series [2], 68.05%.
Take `COc1ccc2cc1Oc1ccc(cc1)C[C@H]1c3cc(c(OC)cc3CCN1C)Oc1c(OC)c(OC)cc3c1[C@H](C2)N(C)CC3` [FANCHININ]: the figures for the residual activity in series [1] and in series [2] were 75.74% and 220.2%, respectively.
On to `CC(C)=CCC/C(C)=C/CC/C(C)=C/CO` [FARNESOL], for which the residual activity in series [1] turned out to be 89.38%; in series [2], 89.91%.
The corresponding values for `CC(C)(OC(=O)c1ccccc1)[C@@H]1Cc2cc3ccc(=O)oc3cc2O1` [FELAMIDIN] are 115.2% and 168.9%.
Regarding `COC(=O)Nc1nc2ccc(Sc3ccccc3)cc2[nH]1` [FENBENDAZOLE], the figures for the residual activity in series [1] and in series [2] were 105.4% and 102.5%, respectively.
The corresponding values for `O=C(O)CCC(=O)c1ccc(-c2ccccc2)cc1` [FENBUFEN] are 172.9% and 86.33%.
For `CCC(C(N)=O)c1ccccc1` (stereo not drawn) [FENBUTYRAMIDE], the residual activity was 101.6% in series [1] and 100.4% in series [2].
On the same counts, the results for `CC(NCCC(c1ccccc1)c1ccccc1)c1ccccc1.Cl` (stereo not drawn) [FENDILINE HYDROCHLORIDE] are 90.27% and 114.6%.
On the same counts, the results for `CC(C)OC(=O)C(C)(C)Oc1ccc(C(=O)c2ccc(Cl)cc2)cc1` [FENOFIBRATE] are 82.56% and 90.21%.
For the compound `CC(C(=O)O)c1cccc(Oc2ccccc2)c1` (stereo not drawn) [FENOPROFEN], the residual activity worked out at 160.2% in series [1] and 96.37% in series [2].
On the same counts, the results for `Cl.O=C1NCC2(CCN(CCc3ccccc3)CC2)O1` [FENSPIRIDE HYDROCHLORIDE] are 107.4% and 93.02%.
The corresponding values for `COP(=S)(OC)Oc1ccc(SC)c(C)c1` [FENTHION] are 116.2% and 100.4%.
On the same counts, the results for `COc1cc(/C=C/C(=O)O)ccc1O` [FERULATE] are 60.24% and 82.81%.
Take `CCCCC[C@@H](O)[C@H]1C(=O)O[C@H](C)[C@@H](O)/C=C/C=C/C=C/C=C/C=C(\C)[C@@H](O)C[C@H](O)C[C@H](O)C[C@H](O)C[C@H](O)C[C@H](O)C[C@@H]1O` [FILIPIN]: the residual activity in series [1] was 96.46%; in series [2] it was 93.93%.
On to `Cl.O=C(COc1ccc(Cl)cc1)N1CCN(Cc2ccc3c(c2)OCO3)CC1` [FIPEXIDE HYDROCHLORIDE], for which the residual activity in series [1] is 103.1%; in series [2], 95%.
For the compound `Oc1ccc2c(c1)O[C@H](c1ccc(O)c(O)c1)[C@@H](O)C2` [FISETINIDOL], the results for the residual activity in series [1] and in series [2] were 74.52% and 95.23%, respectively.
